Activity calls are given as the source filed them.
Tests used:
[1] = target: T1, Short transient receptor potential channel 4 (Mus musculus, UniProt Q9QUQ5); test: mouse TRPC4 channel inhibitors, dose response, cell-based, HEK293 TRPC4/mu-opioid, Fluo-4 calcium (AID 434942); assay type: functional;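 note: potency of inhibitors blocking the TRPC4 calcium response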
T1 sequence (Q9QUQ5 whole entry): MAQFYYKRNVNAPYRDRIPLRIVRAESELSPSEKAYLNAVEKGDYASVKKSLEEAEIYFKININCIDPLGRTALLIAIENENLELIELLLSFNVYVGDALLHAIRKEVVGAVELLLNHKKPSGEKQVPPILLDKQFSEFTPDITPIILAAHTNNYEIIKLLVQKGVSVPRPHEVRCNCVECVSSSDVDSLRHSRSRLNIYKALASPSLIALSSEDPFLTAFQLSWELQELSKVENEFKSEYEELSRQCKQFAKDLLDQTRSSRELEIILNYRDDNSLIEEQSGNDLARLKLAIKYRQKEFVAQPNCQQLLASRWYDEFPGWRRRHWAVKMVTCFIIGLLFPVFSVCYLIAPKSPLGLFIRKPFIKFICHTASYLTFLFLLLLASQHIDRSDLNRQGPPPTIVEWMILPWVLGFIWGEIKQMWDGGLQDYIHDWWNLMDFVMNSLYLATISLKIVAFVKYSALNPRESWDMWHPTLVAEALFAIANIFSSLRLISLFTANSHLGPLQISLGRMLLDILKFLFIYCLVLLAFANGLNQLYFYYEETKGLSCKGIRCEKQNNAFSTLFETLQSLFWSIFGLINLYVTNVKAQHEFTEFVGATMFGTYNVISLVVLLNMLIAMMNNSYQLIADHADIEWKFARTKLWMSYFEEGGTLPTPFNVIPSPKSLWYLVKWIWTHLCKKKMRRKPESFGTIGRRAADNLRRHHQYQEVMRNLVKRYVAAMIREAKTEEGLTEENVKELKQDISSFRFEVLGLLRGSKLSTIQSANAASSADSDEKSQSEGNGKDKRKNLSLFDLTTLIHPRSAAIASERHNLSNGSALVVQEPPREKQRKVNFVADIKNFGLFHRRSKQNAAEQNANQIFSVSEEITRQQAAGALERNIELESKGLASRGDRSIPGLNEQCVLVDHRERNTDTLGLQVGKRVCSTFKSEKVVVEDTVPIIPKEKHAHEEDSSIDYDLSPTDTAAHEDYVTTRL

[2] = target: T1, Short transient receptor potential channel 4; test: mouse TRPC4 channel activators, dose response, cell-based, HEK293 TRPC4/mu-opioid, Fluo-4 calcium (AID 434937); assay type: functional
[3] = target: Delta-type opioid receptor (Homo sapiens, UniProt P41143); test: Counterscreen for agonists of heterodimerization of the mu 1 (OPRM1) and delta 1 (OPRD1) opioid receptors: Luminescence-based cell-based high throughput dose response assay to identify agonists of OPRD1 homodimerization. [Related pubchem assays (depositor defined):AID504326, AID504355, AID504692, AID504904, AID504905]; assay type: functional
Mu-type opioid receptor = Mu-type opioid receptor (Homo sapiens, UniProt P35372); test: Counterscreen for agonists of heterodimerization of the mu 1 (OPRM1) and delta 1 (OPRD1) opioid receptors: Luminescence-based cell-based high throughput dose response assay to identify agonists of OPRM1 homodimerization.; assay type: functional;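 note: U2OS cells expressing OPRM1 and beta-arrestin as split beta-galactosidase partners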
[4] = target: 5-hydroxytryptamine receptor 5A (Homo sapiens, UniProt P47898); test: Counterscreen for agonists of OPRM1-OPRD1 heterodimerization: luminescence-based cell-based high throughput dose response assay to identify agonists of 5-hydroxytryptamine (serotonin) 5A receptor (HTR5A). [Related pubchem assays (depositor defined):AID504326, AID504355, AID504692, AID504904, AID504905]; assay type: functional
[5] = Luminescence Cell-Based Dose Confirmation HTS to Identify Activators of 5'UTR Stem-Loop Driven Alpha-Synuclein mRNA Translation in H4 Neuroglioblastoma Cells. [Related pubchem assays: 1829 (Project Summary), 1814 (Primary HTS)]; assay type: functional
[6] = Luminescence Cell-Based Dose Response HTS to Identify Activators of Luciferase Translation or Activity in H4 […] Cells. [Related pubchem assays: 1829 (Project Summary), 1814 (Primary HTS)]; assay type: functional
cells = assay type: functional
Escherichia coli = test: microbe, parasite or virus in culture
Vero = test: cells; assay type: functional; settings: Chlorocebus sabaeus
[7] = target: T2, High affinity choline transporter 1 (Homo sapiens, UniProt Q9GZV3); test: CHT inhibitors, dose response, cell-based, 5-point CRC, membrane potential dye (AID 504840); assay type: functional
T2 sequence (Q9GZV3 whole entry): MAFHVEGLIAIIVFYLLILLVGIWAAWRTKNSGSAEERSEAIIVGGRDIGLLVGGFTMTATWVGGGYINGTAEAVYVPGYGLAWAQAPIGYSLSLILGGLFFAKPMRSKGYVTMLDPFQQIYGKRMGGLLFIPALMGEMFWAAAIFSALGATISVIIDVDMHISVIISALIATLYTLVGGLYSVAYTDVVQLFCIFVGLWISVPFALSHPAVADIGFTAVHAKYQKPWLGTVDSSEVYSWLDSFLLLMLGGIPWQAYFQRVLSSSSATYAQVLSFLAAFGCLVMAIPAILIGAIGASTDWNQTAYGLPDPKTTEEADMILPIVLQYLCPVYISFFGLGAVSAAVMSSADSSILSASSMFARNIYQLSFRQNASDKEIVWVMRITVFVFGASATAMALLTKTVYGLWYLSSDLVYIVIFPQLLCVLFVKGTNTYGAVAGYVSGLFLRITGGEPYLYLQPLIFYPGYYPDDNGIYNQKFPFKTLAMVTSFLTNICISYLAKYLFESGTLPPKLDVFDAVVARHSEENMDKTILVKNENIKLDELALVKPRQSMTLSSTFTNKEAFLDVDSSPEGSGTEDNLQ

[8] = target: Dual specificity protein kinase CLK1 (Homo sapiens, UniProt P49759); test: CLK1 kinase inhibitors, off-target check, dose response, selectivity assay for Dyrk1A inhibitor project, biochemical, cherry-picked samples (AID 588811)
HEK293 = test: inhibitors of LMP1-driven NF-kB reporter, dose response, cell-based, HEK293, luciferase, cherry-pick (AID 588343); assay type: functional; settings: Homo sapiens
H9c2 = test: cells; assay type: functional, cell-based; settings: Rattus norvegicus, H9c2, Myocardium;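 note: confirmatory concentration-response retest of ultra-high-throughput screening hits for modulation of myocardial damage; cell death induced by hydrogen peroxide oxidative stress; compound pretreatment for 60 min then peroxide exposure for 2 h; potency is for protecting the cells against peroxide damage rather than for killing them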
[9] = target: 26S proteasome non-ATPase regulatory subunit 14 (Homo sapiens, UniProt O00487); test: inhibition of proteasome subunit RPN11 – biochemical, fluorescence polarization, uHTS hits, confirmation (AID 602368); assay type: functional
[10] = target: 72 kDa type IV collagenase (Homo sapiens, UniProt P08253); test: Dose Response validation of uHTS RPN11 inhibitor hits using a MMP-2 Fluorescence assay.; assay type: functional
Prothrombin = Prothrombin (Bos taurus, UniProt P00735); test: thrombin inhibition, dose response, biochemical, fluorescence polarization, uHTS hits (AID 602369); assay type: functional
Bcl-2-related protein A1 = target: T3, Bcl-2-related protein A1 (Mus musculus, UniProt Q07440); assay type: functional;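 note: confirmatory dose–response counterscreen on Bfl-1, used to check hits from a UBC13 polyubiquitin inhibitor campaign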
T3 sequence (Q07440 whole entry): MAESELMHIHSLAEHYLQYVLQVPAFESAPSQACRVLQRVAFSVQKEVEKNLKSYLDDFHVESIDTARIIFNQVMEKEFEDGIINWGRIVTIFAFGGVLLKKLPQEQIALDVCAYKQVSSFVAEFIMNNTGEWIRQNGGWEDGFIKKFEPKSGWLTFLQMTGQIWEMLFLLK

[11] = target: T4, Ubiquitin-conjugating enzyme E2 N (Homo sapiens, UniProt P61088); assay type: functional
T4 sequence (P61088 whole entry): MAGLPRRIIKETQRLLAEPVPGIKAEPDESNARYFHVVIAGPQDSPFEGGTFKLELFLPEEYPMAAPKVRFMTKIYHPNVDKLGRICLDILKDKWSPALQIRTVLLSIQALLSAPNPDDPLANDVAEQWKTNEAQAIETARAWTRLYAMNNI

[12] = target: T4, Ubiquitin-conjugating enzyme E2 N; assay type: functional; remark: listed apart in the source
[13] = target: T5, Replicative DNA helicase DnaB (Mycobacterium tuberculosis, UniProt P9WMR3); test: DnaB intein splicing inhibitors, dose response, biochemical, cell-free fluorescence (AID 449749); assay type: functional
T5 sequence (P9WMR3 whole entry): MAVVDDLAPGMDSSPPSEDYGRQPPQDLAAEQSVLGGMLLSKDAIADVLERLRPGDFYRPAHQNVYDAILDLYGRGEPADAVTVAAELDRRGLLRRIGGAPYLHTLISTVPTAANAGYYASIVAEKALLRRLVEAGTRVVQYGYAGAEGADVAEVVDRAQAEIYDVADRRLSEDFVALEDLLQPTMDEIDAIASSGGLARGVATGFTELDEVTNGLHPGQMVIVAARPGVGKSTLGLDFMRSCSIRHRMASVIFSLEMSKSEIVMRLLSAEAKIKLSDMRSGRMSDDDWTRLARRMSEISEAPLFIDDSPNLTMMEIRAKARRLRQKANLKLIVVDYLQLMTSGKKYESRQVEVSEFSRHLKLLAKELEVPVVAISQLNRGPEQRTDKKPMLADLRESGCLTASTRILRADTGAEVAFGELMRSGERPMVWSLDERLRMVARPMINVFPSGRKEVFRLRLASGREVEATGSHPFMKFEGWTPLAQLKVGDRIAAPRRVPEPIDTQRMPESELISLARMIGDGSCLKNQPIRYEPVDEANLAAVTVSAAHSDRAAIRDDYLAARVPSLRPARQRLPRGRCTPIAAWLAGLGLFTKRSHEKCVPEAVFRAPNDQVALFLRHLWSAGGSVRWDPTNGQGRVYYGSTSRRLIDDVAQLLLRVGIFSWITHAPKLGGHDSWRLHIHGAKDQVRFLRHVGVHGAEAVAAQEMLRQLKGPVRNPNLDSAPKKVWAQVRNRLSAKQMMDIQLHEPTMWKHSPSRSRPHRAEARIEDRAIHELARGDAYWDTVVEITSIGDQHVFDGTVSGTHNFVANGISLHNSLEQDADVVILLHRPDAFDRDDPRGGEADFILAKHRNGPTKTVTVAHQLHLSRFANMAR

Protein RecA = target: T6, Protein RecA (Mycobacterium tuberculosis, UniProt P9WHJ3); test: Fluorescence Cell-Free Homogeneous Dose Retest to Identify Inhibitors of RecA-Intein Splicing Activity. [Related pubchem assays (depositor defined):AID2097, AID2223, AID489010, AID492950]; assay type: functional
T6 sequence (P9WHJ3 whole entry): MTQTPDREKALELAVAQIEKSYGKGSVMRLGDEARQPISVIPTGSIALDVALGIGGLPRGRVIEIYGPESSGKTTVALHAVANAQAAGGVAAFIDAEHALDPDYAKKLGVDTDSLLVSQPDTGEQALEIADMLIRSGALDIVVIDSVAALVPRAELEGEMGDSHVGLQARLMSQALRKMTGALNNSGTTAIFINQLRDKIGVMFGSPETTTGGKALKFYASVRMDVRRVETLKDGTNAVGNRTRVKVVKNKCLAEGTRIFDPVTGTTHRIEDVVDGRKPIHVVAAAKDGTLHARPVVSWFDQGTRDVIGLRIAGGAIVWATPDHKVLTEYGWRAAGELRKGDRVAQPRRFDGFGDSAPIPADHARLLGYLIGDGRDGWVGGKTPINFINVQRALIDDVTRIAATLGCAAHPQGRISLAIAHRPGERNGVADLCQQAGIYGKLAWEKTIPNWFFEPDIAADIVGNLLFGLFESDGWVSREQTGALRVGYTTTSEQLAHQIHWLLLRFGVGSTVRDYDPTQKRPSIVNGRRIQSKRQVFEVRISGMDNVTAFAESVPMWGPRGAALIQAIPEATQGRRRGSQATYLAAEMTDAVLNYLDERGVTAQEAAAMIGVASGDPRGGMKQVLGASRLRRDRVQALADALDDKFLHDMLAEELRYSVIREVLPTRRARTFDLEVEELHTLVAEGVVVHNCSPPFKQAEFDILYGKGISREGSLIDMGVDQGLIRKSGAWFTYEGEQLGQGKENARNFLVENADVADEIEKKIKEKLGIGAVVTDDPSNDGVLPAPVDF

5-hydroxytryptamine receptor 5A, sequence (P47898 whole entry): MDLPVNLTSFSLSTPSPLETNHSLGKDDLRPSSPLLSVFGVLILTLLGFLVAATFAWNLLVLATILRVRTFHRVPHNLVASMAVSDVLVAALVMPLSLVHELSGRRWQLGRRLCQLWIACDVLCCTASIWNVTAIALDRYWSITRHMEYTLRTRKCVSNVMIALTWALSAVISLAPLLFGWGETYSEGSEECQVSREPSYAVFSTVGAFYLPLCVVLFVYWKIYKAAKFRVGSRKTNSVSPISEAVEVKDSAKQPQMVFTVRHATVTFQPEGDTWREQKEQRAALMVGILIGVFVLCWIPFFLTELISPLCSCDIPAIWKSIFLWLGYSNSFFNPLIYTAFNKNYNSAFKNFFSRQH
Mu-type opioid receptor, sequence (P35372 whole entry): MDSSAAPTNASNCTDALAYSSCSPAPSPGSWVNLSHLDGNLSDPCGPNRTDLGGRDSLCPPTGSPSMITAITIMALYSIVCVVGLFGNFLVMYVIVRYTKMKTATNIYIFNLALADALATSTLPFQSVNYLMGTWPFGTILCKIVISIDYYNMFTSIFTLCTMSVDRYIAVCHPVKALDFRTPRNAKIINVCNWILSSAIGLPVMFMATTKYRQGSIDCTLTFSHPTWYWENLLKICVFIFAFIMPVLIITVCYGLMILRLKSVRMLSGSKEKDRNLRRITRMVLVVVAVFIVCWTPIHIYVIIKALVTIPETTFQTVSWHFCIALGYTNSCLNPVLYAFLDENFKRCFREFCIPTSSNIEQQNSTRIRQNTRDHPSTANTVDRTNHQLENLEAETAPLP
Delta-type opioid receptor, sequence (P41143 whole entry): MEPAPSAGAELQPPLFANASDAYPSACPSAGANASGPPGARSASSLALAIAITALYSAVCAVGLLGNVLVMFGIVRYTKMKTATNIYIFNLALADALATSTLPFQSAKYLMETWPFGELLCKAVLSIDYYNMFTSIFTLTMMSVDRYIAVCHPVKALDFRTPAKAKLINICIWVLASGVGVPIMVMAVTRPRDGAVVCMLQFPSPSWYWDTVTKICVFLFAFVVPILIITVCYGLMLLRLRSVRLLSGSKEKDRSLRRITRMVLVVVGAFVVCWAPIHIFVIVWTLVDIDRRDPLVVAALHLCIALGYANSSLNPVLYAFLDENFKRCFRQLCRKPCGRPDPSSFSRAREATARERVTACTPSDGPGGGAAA
Dual specificity protein kinase CLK1, sequence (P49759 whole entry): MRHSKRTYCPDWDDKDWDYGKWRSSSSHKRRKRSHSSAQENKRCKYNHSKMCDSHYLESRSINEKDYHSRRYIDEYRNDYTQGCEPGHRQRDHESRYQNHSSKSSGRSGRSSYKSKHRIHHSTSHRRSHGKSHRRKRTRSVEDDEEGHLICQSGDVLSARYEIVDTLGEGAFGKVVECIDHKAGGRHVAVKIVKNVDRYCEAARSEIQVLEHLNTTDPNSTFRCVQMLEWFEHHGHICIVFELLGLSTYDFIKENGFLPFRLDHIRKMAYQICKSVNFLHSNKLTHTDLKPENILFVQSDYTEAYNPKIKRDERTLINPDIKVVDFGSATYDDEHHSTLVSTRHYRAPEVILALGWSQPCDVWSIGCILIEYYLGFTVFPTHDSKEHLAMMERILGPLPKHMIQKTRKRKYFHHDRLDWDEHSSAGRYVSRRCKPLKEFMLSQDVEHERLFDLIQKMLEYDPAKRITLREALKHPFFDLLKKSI
72 kDa type IV collagenase, sequence (P08253 whole entry): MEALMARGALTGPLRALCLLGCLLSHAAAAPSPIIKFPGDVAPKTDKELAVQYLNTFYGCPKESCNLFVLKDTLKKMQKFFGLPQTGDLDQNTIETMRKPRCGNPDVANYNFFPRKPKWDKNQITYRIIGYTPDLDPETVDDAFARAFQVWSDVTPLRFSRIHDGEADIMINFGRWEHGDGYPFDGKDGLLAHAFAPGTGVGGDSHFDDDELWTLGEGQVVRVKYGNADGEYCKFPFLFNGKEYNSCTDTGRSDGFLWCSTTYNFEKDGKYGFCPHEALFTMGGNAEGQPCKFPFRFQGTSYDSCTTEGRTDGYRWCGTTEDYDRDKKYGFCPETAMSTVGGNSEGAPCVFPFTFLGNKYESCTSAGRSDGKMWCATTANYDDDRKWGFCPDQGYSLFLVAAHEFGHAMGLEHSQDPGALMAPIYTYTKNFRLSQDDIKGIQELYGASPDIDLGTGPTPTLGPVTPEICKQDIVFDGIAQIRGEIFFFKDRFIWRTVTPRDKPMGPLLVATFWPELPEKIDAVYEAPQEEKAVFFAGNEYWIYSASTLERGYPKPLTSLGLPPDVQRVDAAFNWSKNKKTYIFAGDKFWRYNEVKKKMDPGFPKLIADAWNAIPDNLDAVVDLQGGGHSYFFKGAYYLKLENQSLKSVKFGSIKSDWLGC
26S proteasome non-ATPase regulatory subunit 14, sequence (O00487 whole entry): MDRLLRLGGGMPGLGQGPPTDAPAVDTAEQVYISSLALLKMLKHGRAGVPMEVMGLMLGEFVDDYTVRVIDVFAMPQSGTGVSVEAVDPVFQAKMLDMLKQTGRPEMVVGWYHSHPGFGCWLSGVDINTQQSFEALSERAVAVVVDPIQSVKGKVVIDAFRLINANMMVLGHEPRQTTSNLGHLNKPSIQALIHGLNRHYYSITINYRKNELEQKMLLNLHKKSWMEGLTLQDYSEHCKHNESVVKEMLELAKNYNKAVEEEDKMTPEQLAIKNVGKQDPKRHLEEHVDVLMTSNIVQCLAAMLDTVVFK

COc1cccc(CC2(CO)CCCN(Cc3ccccc3-c3ccco3)C2)c1 (stereo not given)
EC50 [1]: 1.19 µM (active)
EC50 [2]: 2660 nM (active)
EC50 [3]: > 92.5 µM (inactive)
EC50 (Mu-type opioid receptor): > 92.5 µM (inactive)
EC50 [4]: > 92.5 µM (inactive)

CCc1cc2c(=O)n(C(C)C(=O)OC3CCCCC3)cnc2s1 (stereo not given)
EC50 [5]: 105 µM (active)
EC50 [6]: 67.6 µM (active)
IC50 (cells): 17.9 µM (active)
AC50 (Escherichia coli): 54.4 µM (active)

O=C1N(c2ccccc2C(F)(F)F)O[C@]1(c1ccccc1)C1CCCCC1
CC50 (Vero): > 25 µM (active)

CCOC(=O)N1CCN(C(=O)C2CCCN(c3ncnc4c3nc3n4CCCCC3)C2)CC1 (stereo not given)
IC50 [7]: 12.9 µM (active)

Fc1ccc(N=C(S)Nc2ccc(F)c(Cl)c2)cc1Cl
IC50 [7]: 7.94 µM (active)

Cc1noc(CN(C)c2ncnc3ccc(-c4ccc5c(c4)OCO5)cc23)n1
AC50 [8]: < 1.95 nM (active)

CN(C(=O)COC(=O)CNC(=O)C12CC3CC(CC(C3)C1)C2)C1CCS(=O)(=O)C1 (stereo not given)
AC50 (Escherichia coli): 27.2 µM (active)

c1csc(CNc2ncnc3ccc(-c4ccoc4)cc23)c1
AC50 (HEK293): 19 µM (active)
AC50 [8]: 9.79 nM (active)

COc1ccc2o/c(=N/NC(=O)c3cccs3)c(C(N)=O)cc2c1
IC50 (H9c2): > 79 µM (inactive)
IC50 [9]: 38.5 µM (active)
IC50 [10]: > 100 µM (inactive)
IC50 (Prothrombin): 79.7 µM (active)

N=c1n(CC(=O)c2cccc([N+](=O)[O-])c2)c2ccccc2n1Cc1ccccc1
CC50 (Vero): 11.2 µM (active)

O=C(CSCc1ccc([N+](=O)[O-])cc1)N/N=C/c1cccnc1
IC50 (Bcl-2-related protein A1): > 20 µM (inactive)
IC50 [11]: 8.26 µM (active)
IC50 [12]: 10.9 µM (active)
AC50 [13]: > 380 µM (inactive)
EC50 (Protein RecA): > 380 µM (inactive)

CN(C)C(CN=C(S)Nc1ccccc1)c1cccnc1 (stereo not given)
EC50 [2]: 149 nM (active)
EC50 [3]: > 92.4 µM (inactive)
EC50 (Mu-type opioid receptor): > 92.4 µM (inactive)
EC50 [4]: > 92.4 µM (inactive)

O=C(Nc1ccccc1Oc1ccccc1)c1ccc(Br)o1
AC50 (Escherichia coli): > 380 µM (inactive)

COc1ccc(C(CNC(=O)/C=C/c2c(Cl)nc3ccccn23)N(C)C)cc1 (stereo not given)
EC50 [2]: 473 nM (active)
EC50 [3]: > 92.5 µM (inactive)
EC50 (Mu-type opioid receptor): > 92.5 µM (inactive)
EC50 [4]: > 92.5 µM (inactive)
